US20120230914A1, “LABELING COMPOUND FOR PET” (RIKEN, priority 2009, published 2012)

Legend:
[1] = Reuptake of labeled metabolite: HPLC of blood and brain extracts after tail vein injection; type: in vivo; settings: male rats, brain sampled 5, 10 and 20 min after injection
Description: 5, 10 and 20 min after the injection, bloods were sampled from aorta adbominalis and then the brains were taken out and homogenized. Acetonitrile was added to the bloods and homogenated brains and the resultants were subjected to centrifugation, and extracts were subjected to HPLC in order to measure labeled metabolites.
Data for “Monkey” shown in FIG. 8 was obtained by sampling vein blood along with PET imaging, centrifuging the sampled vein blood, adding acetonitrile to the blood plasma and centrifuging the blood plasma, and subjecting the extract to HPLC to measure parent compound in the blood plasma.

aromatase [2] = molecular target: T1, aromatase (Rattus norvegicus, UniProt P22443); experiment: In vitro binding test (ligand saturation, Scatchard plot analysis); parameters: species or system rats
T1 construct: from tissue; host or cells: rat ovary homogenate (female rats)
T1 sequence (P22443 1-508): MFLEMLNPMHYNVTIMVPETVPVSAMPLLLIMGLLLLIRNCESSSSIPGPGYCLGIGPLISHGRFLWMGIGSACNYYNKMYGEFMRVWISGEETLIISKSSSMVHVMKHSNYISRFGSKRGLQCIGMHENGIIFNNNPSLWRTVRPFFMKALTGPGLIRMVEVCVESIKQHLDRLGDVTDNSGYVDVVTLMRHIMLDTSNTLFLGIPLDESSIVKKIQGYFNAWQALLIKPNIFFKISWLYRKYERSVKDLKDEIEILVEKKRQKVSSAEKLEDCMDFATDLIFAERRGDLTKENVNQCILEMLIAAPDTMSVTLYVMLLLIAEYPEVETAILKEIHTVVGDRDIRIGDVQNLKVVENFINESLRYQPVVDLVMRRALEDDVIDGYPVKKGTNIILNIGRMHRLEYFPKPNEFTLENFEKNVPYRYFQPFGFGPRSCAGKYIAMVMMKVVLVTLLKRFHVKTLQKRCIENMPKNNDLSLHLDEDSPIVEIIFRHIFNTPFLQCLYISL
Description: Specifically, female rats were anesthetized with diethyl ether, and 0.01 M phosphate buffered saline (PBS, pH 7.4) was perfused via hearts. Ovaries of the rats were removed immediately and homogenized in 1 mL of a 0.32 M sucrose solution.
After filtration, counting was performed by a γ counter, and the average of KD was calculated by Scatchard plot analysis.

aromatase [3] = molecular target: T2, aromatase (Macaca mulatta, UniProt A0A1D5QZ23); experiment: PET measurement (binding potential images and SUV in brain regions); settings: for specific binding in amygdala (binding potential images): male Rhesus macaques, i.v. 33 MBq/kg, 90 min scan, cerebellum as reference region; for binding potential (difference among the compounds): Rhesus macaques, relative to Compounds (10), (22), (33), (39)
T2 sequence (A0A1D5QZ23 1-503): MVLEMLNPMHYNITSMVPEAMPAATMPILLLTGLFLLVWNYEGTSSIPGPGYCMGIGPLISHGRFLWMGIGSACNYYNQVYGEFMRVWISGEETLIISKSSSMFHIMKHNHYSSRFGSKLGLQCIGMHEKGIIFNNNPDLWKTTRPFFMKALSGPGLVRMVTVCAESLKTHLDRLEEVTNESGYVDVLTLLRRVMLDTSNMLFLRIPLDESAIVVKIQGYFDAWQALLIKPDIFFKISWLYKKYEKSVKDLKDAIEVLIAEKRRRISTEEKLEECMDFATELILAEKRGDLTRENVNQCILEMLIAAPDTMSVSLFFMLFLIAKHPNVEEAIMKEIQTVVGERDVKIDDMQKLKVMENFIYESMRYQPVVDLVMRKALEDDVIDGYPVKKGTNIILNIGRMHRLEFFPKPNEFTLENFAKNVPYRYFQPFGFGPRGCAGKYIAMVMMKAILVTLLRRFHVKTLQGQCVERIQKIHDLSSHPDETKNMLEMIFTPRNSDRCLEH
Description: (§1) (i) Male Rhesus macaques were subjected to PET measurement. Specifically, Rhesus macaques were put under sedation with ketalar (10 mg/kg), and intravenous catheters for RI administration were attached to their legs. Thereafter, the Rhesus macaques were anesthetized using propofol (10 mg/kg/h), and were immobilized in a PET scanner.
(§2) After reconstructing images, binding potential (BP) images with cerebellum as a reference region were constructed. The binding potential used herein indicates a value obtained by dividing an association rate constant by a dissociation rate constant.
(§3) SUV is a value obtained by dividing radioactivity density per 1 ml of tissue by radioactivity density per 1 g of body weight, i.e. SUV=radioactivity density per 1 ml of tissue/radioactivity density per 1 g of body weight.

aromatase [4] = experiment: as above; settings: for temporal change in SUV (standardized uptake value) in the latter part of scanning: Rhesus macaques, cerebellum, amygdala, hypothalamus, nucleus accumbens
Description: as §1, §2, §3

aromatase [5] = molecular target: T2, aromatase; experiment: Replacement test with non-radiolabeled vorozole (PET binding potential); type: in vivo; parameters: allows quantifying aromatase in the brain with higher accuracy; from tissue; host or cells: brain of living male Rhesus macaques (amygdala, hypothalamus, nucleus accumbens); settings: Rhesus macaques; after non-radiolabeled VOR 100 μg/kg; compared with VOR
Description: 5 min before administration of the Compound (10), non-radiolabeled vorozole (VOR) (100 μg/kg) was administered, and binding potential (BP) of Rhesus macaques were observed.

reuptake of labeled metabolite into the brain [1]	Kd (aromatase [2]; homogenized rat ovaries, room temperature, 30 min, nonspecific binding with 1 μM non-radiolabeled VOR, read-out: dissociation constant (KD))	nonspecific binding of the labeled compound to cerebral cortex etc. (aromatase [4]; male Rhesus macaques, compared to conventional [11C]vorozole)	Structure (SMILES)	affinity relative to VOR (aromatase [2]; from KD values)	specific binding in amygdala (binding potential images) (aromatase [3])	temporal change in SUV (standardized uptake value) in the latter part of scanning (aromatase [4])	amount of replaced binding (considered nonspecific binding) (aromatase [5])	binding potential (difference among the compounds) (aromatase [3])
such reuptake was not observed	0.3 nM	decreased	[11CH3]c1ccc(CN(c2ccc(C#N)cc2)n2cnnc2)cc1 [Compound (10), 4-{(4-[^11C]Methylbenzyl)(4H-1,2,4-triazol-4-yl)amino}benzonitrile]	approximately twice higher affinity than VOR	specific binding was observed in amygdala	decreases as time passes	smaller amount of replaced binding than the case of VOR	–
–	–	–	[11CH3]c1cccc(CN(c2ccc(C#N)cc2)n2cnnc2)c1 [Compound (22), 4-{(3-[^11C]Methylbenzyl)(4H-1,2,4-triazol-4-yl)amino}benzonitrile]	–	specific binding was observed in amygdala	decreases as time passes	–	relatively low binding potential
–	–	–	[11CH3]c1ccc(CN(c2ccc([N+](=O)[O-])cc2)n2cnnc2)cc1 [Compound (33), 4-{(4-[^11C]Methylbenzyl)(4H-1,2,4-triazol-4-yl)amino}nitrobenzene]	–	specific binding was observed in amygdala	decreases as time passes	–	–
–	–	–	[11CH3]c1ccc(CN(c2ccc(C#N)cc2)n2cncn2)cc1 [Compound (39), 4-{(4-[^11C]Methylbenzyl)(1H-1,2,4-triazol-1-yl)amino}benzonitrile]	–	specific binding was observed in amygdala	decreases as time passes	–	relatively high binding potential
